Our source for the IC50 values is US5591756A, “LTB4 synthesis inhibitors” (G. D. Searle & Co., priority 1995, dated 1997).

SMILES strings stand for the structures.

The subject of assay [1] is LTB4 Biosynthesis, Human PMNs. The assay is described as follows: LTB4 biosynthesis inhibition in human PMNs. Particulars: read-out: LTB4 Biosynthesis inhibition cells IC50, Human PMNs. The class given is cell-based.
In assay [2] the target is T1, Human synovial fluid phospholipase A2 (HSF-PLA2) (Homo sapiens, UniProt P14555).
T1 construct: Human synovial fluid phospholipase A2 was purified approximately 5000 fold; from tissue; host or cells: human synovial fluid (enzyme purified about 5000 fold)
T1 sequence (P14555 21-144): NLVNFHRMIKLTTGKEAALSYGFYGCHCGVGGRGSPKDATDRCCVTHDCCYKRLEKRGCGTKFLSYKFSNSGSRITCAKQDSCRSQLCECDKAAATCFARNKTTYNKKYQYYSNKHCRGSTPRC
The assay is described as follows: Human synovial fluid phospholipase A2 (HSF-PLA2) assay. The class given is biochemical. Particulars: [14C]-oleate-labeled E. coli substrate, pH 7.0, 5 min pre-incubation, 37° C., 30 minutes. The protocol: Human synovial fluid phospholipase A2 was purified approximately 5000 fold following the procedures of Franson et al., Lung 160, 275-284 (1982) and Fawzy et al., Bio Phys. J. 49, 533a (1986). Following purification the enzyme activity was measured by established methodology using [^14 C]-oleate-labeled, autoclaved E. coli as the substrate as also shown in the above noted references. The assay was performed in a final volume of 100 μl containing 50 mM HEPES (pH 7.0), 150 mM NaCl, 5 mM CaCl2, 7 nM [^14 C]-oleate-labeled E. coli phospholipid and with or without the compound from one of the examples herein undergoing an assay. The compound or control vehicle was pre-incubated with the PLA2 for 5 minutes followed by addition of the E. coli substrate to initiate the reaction. The reaction was maintained at 37° C. for 30 minutes and then terminated by the addition of 2 ml tetrahydrofuran (THF). The reaction product, [^14 C]-oleic acid, was extracted using a 1 ml Bond Elut-NH2 Solid phase extraction column. The IC50 value for the compound (mean±S.E.) is given in the following Table and represents the concentration of the compound required to inhibit 50% of the PLA2 activity.

For assay [3], the system named is LTB4 Biosynthesis, HL-60 cells. The assay is described as follows: Assay for LTB4 (and PGE2) production by HL-60 cells. The class given is cell-based. The conditions noted are these: Homo sapiens; differentiated HL-60 cells, 10 min pre-incubation 37° C., stimulated with 5×10^-6 M calcium ionophore A23187, radioimmunoassay; read-out: LTB4 Biosynthesis inhibition cells IC50, HL60 Cells. How it is done:
HL-60 cells were induced to differentiate into granulocytes by a 4 day incubation with 0.8% (v/v) N,N-dimethyl formamide as disclosed in Fontana et al., Proc. Natl. Acad. Sci. 78. (6): 3863-3866 (1981); Agins et al., Biochem. Biophys. Res. Comm. 126, 143-149 (1985); and Bonser et al., Biochemistry 20: 5297-5301 (1981). Prior to performing the assay, differentiated HL-60 cells were washed once with Hanks' balanced salt solution containing 0.35 mg/ml sodium bicarbonate and 10 mM HEPES pH 7.35 (HBSS). HL-60 cells (3×10^6 cells/ml) were pre-incubated with the compound tested or a control vehicle at 37° C. for 10 minutes, followed by 5 minute incubation with 5×10^-6 M calcium ionophore A23187 in a final volume of 1.0 ml. After incubation, the cells were pelleted by centrifugation and the LTB4 and PGE2 in the supernatent were quantified by radioimmunoassay. IC50 values (means±S.E.) for compounds herein that were tested are shown in the following Table and represent the concentrations of the compound required to inhibit 50% of LTB4 or PGE2 production by HL-60 cells stimulated with the calcium ionophore A23187.

Usually IC50 stands for the concentration at which inhibition is half-maximal.

For the molecule `CCCCCCCCCCCCCC(=O)CC(=O)c1ccc(C(=O)O)s1` [Example 15, 5-(1,3-dioxohexadecyl)-2-thiophenecarboxylic acid], the half-maximal inhibitory concentration (IC50) turned out to be 2.7 µM in assay [1] and 1.9 µM in assay [2].

For the molecule `O=C(CCCCCCCCCOc1ccccc1)CC(=O)c1ccc(C(=O)O)cc1` [Example 22, 4-(1,3-dioxo-12-phenoxydodecyl)benzoic acid], the 50% inhibitory concentration (IC50) in assay [1] is 2.7 µM; in assay [2] it was 16 µM.

Turning to `CCCCCCCCCCCCCC(=O)CC(=O)c1ccc(C(=O)O)o1` [Example 9, 5-(1,3-dioxohexadecanyl)-2-furancarboxylic acid], the IC50 stood at 4.7 µM in assay [3], 3.5 µM in assay [1] and 2.7 µM in assay [2].

For `CCCCCCCCCCCCCC(=O)CC(=O)c1ccc(C(=O)O)cc1` [Example 4, 4-(1,3-dioxohexadecanyl)benzoic acid], inhibition in assay [2] was half-maximal at 90 µM (IC50).

For `CCCCCCCCCCCCCC(=O)CC(=O)c1cccc(-c2nnn[nH]2)c1` [Example 19, 1-[3-(1H-tetrazol-5-yl)phenyl]-1,3-hexadecadione], the figures for the 50% inhibitory concentration (IC50) in assay [1] and in assay [2] were 3 µM and 48 µM, respectively.

For `CCCCCCCCCCCCCC(=O)CC(=O)c1cccc(C(=O)O)c1` [Example 5, 3-(1,3-dioxohexadecanyl)benzoic acid], the IC50 in assay [3] turned out to be 1.5 µM; in assay [1], 1.2 µM; in assay [2], 1.7 µM.
